Reference: the kinase profiling compilation of Christmann-Franck et al. (2016)

Legend:
Test in all cases: radiometric filter-binding kinase assay, Kinase HotSpot
Details in all cases: compound 0.5 µM; ATP 10 µM
CAMK1 (human) = CAMK1 (human) (UniProt Q14012)
EPHB1 (human) = EPHB1 (human) (UniProt P54762)
CHEK1 (human) = CHEK1 (human) (UniProt O14757)
STK4 (human) = STK4 (human) (UniProt Q13043)
RPS6KB1 (human) = RPS6KB1 (human) (UniProt P23443)
HIPK1 (human) = HIPK1 (human) (UniProt Q86Z02)
SIK2 (human) = SIK2 (human) (UniProt Q9H0K1)
SIK2 (human), sequence (Q9H0K1 whole entry, looked up): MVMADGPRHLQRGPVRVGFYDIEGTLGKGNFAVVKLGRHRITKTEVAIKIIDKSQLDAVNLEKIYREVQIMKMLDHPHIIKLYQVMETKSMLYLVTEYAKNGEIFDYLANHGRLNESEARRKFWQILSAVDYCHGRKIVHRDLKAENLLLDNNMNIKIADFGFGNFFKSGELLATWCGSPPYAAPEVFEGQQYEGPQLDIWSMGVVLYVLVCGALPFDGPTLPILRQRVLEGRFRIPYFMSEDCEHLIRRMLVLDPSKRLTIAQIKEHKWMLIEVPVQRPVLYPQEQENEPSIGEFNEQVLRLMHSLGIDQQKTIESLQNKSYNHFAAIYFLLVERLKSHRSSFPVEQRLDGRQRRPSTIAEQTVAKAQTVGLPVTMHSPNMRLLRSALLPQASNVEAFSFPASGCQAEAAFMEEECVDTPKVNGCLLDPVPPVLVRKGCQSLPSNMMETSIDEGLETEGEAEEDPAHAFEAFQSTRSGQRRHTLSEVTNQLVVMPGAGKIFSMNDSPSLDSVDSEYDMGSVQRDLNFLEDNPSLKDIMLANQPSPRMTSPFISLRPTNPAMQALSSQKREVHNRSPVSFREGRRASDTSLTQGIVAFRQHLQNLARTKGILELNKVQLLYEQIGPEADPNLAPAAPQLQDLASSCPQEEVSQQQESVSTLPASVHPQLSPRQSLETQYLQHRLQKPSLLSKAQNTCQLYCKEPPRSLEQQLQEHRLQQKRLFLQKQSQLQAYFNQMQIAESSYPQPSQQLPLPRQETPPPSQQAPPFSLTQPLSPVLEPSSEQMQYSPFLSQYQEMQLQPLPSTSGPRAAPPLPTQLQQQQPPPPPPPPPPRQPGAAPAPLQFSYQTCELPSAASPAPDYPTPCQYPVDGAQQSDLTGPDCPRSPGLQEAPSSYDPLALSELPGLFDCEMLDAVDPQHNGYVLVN

CSNK1E (human) = CSNK1E (human) (UniProt P49674)
CSNK1E (human), sequence (P49674 whole entry, looked up): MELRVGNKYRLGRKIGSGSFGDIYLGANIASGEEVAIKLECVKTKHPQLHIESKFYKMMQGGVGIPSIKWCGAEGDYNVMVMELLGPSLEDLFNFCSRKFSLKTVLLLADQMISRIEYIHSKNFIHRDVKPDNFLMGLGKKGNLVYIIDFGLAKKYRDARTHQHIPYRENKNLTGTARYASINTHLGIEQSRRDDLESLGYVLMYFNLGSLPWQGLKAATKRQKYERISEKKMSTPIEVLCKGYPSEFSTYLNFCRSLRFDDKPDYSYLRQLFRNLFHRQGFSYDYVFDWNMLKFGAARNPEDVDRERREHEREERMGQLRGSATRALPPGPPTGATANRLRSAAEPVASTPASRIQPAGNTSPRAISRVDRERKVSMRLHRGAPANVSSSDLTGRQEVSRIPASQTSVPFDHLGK

PRKCI (human) = PRKCI (human) (UniProt P41743)
PRKCI (human), sequence (P41743 whole entry, looked up): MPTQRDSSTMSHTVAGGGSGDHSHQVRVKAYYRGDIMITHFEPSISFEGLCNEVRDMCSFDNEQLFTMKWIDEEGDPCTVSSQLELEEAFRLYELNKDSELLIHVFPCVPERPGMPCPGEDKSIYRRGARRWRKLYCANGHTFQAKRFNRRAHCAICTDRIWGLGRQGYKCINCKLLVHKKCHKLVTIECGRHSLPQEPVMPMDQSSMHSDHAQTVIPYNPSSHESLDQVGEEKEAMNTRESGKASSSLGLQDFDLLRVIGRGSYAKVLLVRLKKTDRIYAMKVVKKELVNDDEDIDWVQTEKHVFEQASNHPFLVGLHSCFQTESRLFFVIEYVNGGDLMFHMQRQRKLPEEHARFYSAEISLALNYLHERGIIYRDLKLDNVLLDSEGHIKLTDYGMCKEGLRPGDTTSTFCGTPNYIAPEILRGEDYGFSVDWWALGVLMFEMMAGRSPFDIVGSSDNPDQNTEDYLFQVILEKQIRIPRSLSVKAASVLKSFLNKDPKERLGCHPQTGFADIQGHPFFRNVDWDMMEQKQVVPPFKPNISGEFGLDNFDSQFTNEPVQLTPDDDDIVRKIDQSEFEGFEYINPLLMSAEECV

BRSK2 (human) = BRSK2 (human) (UniProt Q8IWQ3)
MAP3K14 (human) = MAP3K14 (human) (UniProt Q99558)
DDR2 (human) = DDR2 (human) (UniProt Q16832)
ROCK2 (human) = ROCK2 (human) (UniProt O75116)
BLK (human) = BLK (human) (UniProt P51451)
ROCK1 (human) = ROCK1 (human) (UniProt Q13464)
PLK2 (human) = PLK2 (human) (UniProt Q9NYY3)
STK16 (human) = STK16 (human) (UniProt O75716)
CSNK1G1 (human) = CSNK1G1 (human) (UniProt Q9HCP0)
ALK (human) = ALK (human) (UniProt Q9UM73)
PAK6 (human) = PAK6 (human) (UniProt Q9NQU5)
PAK6 (human), sequence (Q9NQU5 whole entry, looked up): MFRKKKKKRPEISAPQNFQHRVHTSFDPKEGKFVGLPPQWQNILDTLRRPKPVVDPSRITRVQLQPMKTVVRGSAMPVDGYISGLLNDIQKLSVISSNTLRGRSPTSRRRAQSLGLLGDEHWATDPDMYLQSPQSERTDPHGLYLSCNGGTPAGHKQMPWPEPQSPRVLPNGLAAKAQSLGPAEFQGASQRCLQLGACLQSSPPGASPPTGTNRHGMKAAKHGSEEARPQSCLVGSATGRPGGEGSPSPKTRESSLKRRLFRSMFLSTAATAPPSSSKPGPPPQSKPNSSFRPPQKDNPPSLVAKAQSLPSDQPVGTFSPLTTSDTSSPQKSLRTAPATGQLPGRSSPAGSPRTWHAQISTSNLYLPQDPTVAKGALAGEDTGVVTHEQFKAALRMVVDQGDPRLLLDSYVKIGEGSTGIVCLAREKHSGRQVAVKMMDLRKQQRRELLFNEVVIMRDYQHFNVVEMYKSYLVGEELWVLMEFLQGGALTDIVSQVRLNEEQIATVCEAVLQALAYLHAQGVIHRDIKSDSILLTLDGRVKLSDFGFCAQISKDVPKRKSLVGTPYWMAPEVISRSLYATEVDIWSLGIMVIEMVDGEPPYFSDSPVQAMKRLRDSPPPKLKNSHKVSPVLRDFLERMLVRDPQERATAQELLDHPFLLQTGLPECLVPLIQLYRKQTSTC

STK17A (human) = STK17A (human) (UniProt Q9UEE5)
MAP3K8 (human) = MAP3K8 (human) (UniProt P41279)
MAP3K8 (human), sequence (P41279 whole entry, looked up): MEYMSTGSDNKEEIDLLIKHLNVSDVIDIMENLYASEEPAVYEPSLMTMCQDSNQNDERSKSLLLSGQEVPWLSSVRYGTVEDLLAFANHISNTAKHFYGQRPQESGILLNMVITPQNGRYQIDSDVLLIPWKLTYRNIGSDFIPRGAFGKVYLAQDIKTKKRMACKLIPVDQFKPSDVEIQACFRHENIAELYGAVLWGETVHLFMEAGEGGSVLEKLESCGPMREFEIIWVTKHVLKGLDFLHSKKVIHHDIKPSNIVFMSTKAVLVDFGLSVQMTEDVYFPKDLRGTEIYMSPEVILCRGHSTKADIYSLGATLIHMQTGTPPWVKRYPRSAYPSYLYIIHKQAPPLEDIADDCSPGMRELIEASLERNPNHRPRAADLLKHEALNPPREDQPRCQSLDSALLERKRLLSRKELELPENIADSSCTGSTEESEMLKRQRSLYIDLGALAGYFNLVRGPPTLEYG

SRC (human) = SRC (human) (UniProt P12931)
TSSK1B (human) = TSSK1B (human) (UniProt Q9BXA7)
MAP3K10 (human) = MAP3K10 (human) (UniProt Q02779)
IRAK4 (human) = IRAK4 (human) (UniProt Q9NWZ3)
PTK2B (human) = PTK2B (human) (UniProt Q14289)
MAPK11 (human) = MAPK11 (human) (UniProt Q15759)
[1] = system: MAP2K6 (human), P52564 [S207E/T211E]
MAP2K6 (human), P52564 [S207E/T211E], sequence (P52564 whole entry S207E/T211E, looked up): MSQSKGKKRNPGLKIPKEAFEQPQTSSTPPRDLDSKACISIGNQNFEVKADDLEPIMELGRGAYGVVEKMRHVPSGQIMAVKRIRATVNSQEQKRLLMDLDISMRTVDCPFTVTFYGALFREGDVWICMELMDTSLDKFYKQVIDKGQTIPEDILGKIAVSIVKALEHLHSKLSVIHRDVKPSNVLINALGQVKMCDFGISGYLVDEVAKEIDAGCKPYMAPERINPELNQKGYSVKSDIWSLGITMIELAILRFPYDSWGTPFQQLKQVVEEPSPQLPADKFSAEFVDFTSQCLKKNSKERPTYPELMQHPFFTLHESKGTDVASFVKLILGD

LTK (human) = LTK (human) (UniProt P29376)
CLK2 (human) = CLK2 (human) (UniProt P49760)
CLK2 (human), sequence (P49760 whole entry, looked up): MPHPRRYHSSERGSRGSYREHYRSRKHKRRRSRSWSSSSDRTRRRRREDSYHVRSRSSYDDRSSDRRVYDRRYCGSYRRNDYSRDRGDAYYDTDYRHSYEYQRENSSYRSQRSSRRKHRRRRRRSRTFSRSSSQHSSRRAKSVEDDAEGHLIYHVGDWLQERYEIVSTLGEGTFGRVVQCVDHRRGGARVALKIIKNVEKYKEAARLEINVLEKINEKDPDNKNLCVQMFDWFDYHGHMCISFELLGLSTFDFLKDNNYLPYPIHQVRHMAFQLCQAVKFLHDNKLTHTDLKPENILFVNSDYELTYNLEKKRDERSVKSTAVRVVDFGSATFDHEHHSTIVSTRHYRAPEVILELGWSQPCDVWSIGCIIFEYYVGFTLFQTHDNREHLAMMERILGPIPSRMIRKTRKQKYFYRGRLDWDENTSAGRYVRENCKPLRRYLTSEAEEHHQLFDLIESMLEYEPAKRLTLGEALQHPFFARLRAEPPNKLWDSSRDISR

OXSR1 (human) = OXSR1 (human) (UniProt O95747)
PAK3 (human) = PAK3 (human) (UniProt O75914)
DYRK3 (human) = DYRK3 (human) (UniProt O43781)
MAP2K2 (human) = MAP2K2 (human) (UniProt P36507)
AKT3 (human) = AKT3 (human) (UniProt Q9Y243)
MUSK (human) = MUSK (human) (UniProt O15146)
MAP2K1 (human) = MAP2K1 (human) (UniProt Q02750)
CDK4 CCND1 (human) = CDK4 CCND1 (human) (UniProt P24385+P11802)
PRKD3 (human) = PRKD3 (human) (UniProt O94806)
ADRBK1 (human) = ADRBK1 (human) (UniProt P25098)
IKBKE (human) = IKBKE (human) (UniProt Q14164)

EPHB1 (human), sequence (P54762 whole entry, looked up): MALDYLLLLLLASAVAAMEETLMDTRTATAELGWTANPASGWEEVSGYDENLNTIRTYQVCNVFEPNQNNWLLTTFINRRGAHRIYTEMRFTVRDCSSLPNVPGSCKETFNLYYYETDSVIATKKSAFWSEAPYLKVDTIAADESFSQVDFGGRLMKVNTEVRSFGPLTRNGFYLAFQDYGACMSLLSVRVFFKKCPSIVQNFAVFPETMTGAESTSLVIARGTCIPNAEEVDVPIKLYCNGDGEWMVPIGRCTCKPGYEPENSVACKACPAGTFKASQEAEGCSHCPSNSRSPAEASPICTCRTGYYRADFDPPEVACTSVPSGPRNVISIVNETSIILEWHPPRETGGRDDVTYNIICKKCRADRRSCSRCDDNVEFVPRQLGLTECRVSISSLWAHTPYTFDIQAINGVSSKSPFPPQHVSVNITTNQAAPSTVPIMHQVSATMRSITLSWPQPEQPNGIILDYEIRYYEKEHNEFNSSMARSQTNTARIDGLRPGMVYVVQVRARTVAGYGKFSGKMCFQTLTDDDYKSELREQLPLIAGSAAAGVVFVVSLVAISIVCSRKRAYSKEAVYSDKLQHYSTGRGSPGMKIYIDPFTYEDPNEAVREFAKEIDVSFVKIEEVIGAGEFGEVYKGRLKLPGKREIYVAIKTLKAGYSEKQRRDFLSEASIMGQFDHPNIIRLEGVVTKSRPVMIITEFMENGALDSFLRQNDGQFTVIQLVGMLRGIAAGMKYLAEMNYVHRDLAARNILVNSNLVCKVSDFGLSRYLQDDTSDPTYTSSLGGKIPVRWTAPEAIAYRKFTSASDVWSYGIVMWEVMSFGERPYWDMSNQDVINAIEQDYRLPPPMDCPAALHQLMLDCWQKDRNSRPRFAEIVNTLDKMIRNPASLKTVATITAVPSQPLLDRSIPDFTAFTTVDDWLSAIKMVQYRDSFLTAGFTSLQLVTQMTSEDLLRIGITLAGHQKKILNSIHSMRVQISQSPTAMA

Which residual activity (CAMK1 (human)) does the source give for `COc1cc2ncnc(Nc3ccc(Oc4ccccc4)cc3)c2cc1OC` here?
Its residual activity is 105%.

And the residual activity (EPHB1 (human))?
Its residual activity is 108%.

What about the residual activity (CHEK1 (human)) of the same compound?
The residual activity was 97.4%.

What about the residual activity (STK4 (human)) of the same compound?
The residual activity was 107%.

What about the residual activity (RPS6KB1 (human)) of the same compound?
Its residual activity is 108%.

What about the residual activity (HIPK1 (human)) of the same compound?
Its residual activity is 102%.

And the residual activity (SIK2 (human))?
The residual activity was 97.7%.

What about the residual activity (CSNK1E (human)) of the same compound?
Its residual activity is 100%.

And the residual activity (PRKCI (human))?
The residual activity was 108%.

What about the residual activity (BRSK2 (human)) of the same compound?
Its residual activity is 101%.

What about the residual activity (MAP3K14 (human)) of the same compound?
The residual activity was 93%.

What about the residual activity (DDR2 (human)) of the same compound?
Its residual activity is 97.9%.

What about the residual activity (ROCK2 (human)) of the same compound?
Its residual activity is 99.3%.

What about the residual activity (BLK (human)) of the same compound?
The residual activity was 9.95%.

And the residual activity (ROCK1 (human))?
Its residual activity is 102%.

And the residual activity (PLK2 (human))?
Its residual activity is 104%.

And the residual activity (STK16 (human))?
Its residual activity is 107%.

What about the residual activity (CSNK1G1 (human)) of the same compound?
The residual activity was 90%.

And the residual activity (ALK (human))?
The residual activity was 109%.

And the residual activity (PAK6 (human))?
The residual activity was 109%.

And the residual activity (STK17A (human))?
Its residual activity is 96.3%.

And the residual activity (MAP3K8 (human))?
The residual activity was 68.9%.

What about the residual activity (SRC (human)) of the same compound?
Its residual activity is 82.8%.

And the residual activity (TSSK1B (human))?
The residual activity was 104%.

What about the residual activity (MAP3K10 (human)) of the same compound?
The residual activity was 96.7%.

And the residual activity (IRAK4 (human))?
The residual activity was 112%.

And the residual activity (PTK2B (human))?
The residual activity was 89%.

What about the residual activity (MAPK11 (human)) of the same compound?
The residual activity was 105%.

What about the residual activity [1] of the same compound?
The residual activity was 102%.

And the residual activity (LTK (human))?
The residual activity was 98.3%.

What about the residual activity (CLK2 (human)) of the same compound?
Its residual activity is 103%.

And the residual activity (OXSR1 (human))?
Its residual activity is 97.5%.

What about the residual activity (PAK3 (human)) of the same compound?
The residual activity was 98.1%.

What about the residual activity (DYRK3 (human)) of the same compound?
The residual activity was 103%.

And the residual activity (MAP2K2 (human))?
The residual activity was 105%.

What about the residual activity (AKT3 (human)) of the same compound?
The residual activity was 105%.

What about the residual activity (MUSK (human)) of the same compound?
The residual activity was 89.8%.

What about the residual activity (MAP2K1 (human)) of the same compound?
Its residual activity is 85.9%.

And the residual activity (CDK4 CCND1 (human))?
Its residual activity is 113%.

What about the residual activity (PRKD3 (human)) of the same compound?
The residual activity was 95.8%.

What about the residual activity (ADRBK1 (human)) of the same compound?
The residual activity was 101%.

What about the residual activity (IKBKE (human)) of the same compound?
Its residual activity is 101%.

Which residual activity (CAMK1 (human)) does the source give for `NC(=O)c1cccc(-c2cc(Nc3ccc(OC(F)(F)F)cc3)ncn2)c1` here?
Its residual activity is 97.5%.

And the residual activity (EPHB1 (human))?
The residual activity was 105%.

And the residual activity (CHEK1 (human))?
Its residual activity is 94.2%.

And the residual activity (STK4 (human))?
The residual activity was 88.7%.

What about the residual activity (RPS6KB1 (human)) of the same compound?
The residual activity was 109%.

What about the residual activity (HIPK1 (human)) of the same compound?
Its residual activity is 102%.

And the residual activity (SIK2 (human))?
The residual activity was 108%.

What about the residual activity (CSNK1E (human)) of the same compound?
The residual activity was 103%.

What about the residual activity (PRKCI (human)) of the same compound?
The residual activity was 99.6%.

What about the residual activity (BRSK2 (human)) of the same compound?
Its residual activity is 93%.

What about the residual activity (MAP3K14 (human)) of the same compound?
Its residual activity is 103%.

What about the residual activity (DDR2 (human)) of the same compound?
The residual activity was 108%.

What about the residual activity (ROCK2 (human)) of the same compound?
The residual activity was 98.5%.

And the residual activity (BLK (human))?
The residual activity was 103%.

And the residual activity (ROCK1 (human))?
The residual activity was 96.8%.

And the residual activity (PLK2 (human))?
Its residual activity is 98%.

And the residual activity (STK16 (human))?
The residual activity was 81.8%.

What about the residual activity (CSNK1G1 (human)) of the same compound?
Its residual activity is 97.8%.

What about the residual activity (ALK (human)) of the same compound?
The residual activity was 103%.

What about the residual activity (PAK6 (human)) of the same compound?
The residual activity was 102%.

And the residual activity (STK17A (human))?
The residual activity was 98.7%.

What about the residual activity (MAP3K8 (human)) of the same compound?
Its residual activity is 96.8%.

What about the residual activity (SRC (human)) of the same compound?
Its residual activity is 97%.

And the residual activity (TSSK1B (human))?
The residual activity was 95.4%.

And the residual activity (MAP3K10 (human))?
The residual activity was 95.4%.

What about the residual activity (IRAK4 (human)) of the same compound?
The residual activity was 159%.

What about the residual activity (PTK2B (human)) of the same compound?
The residual activity was 94.6%.

And the residual activity (MAPK11 (human))?
Its residual activity is 105%.

What about the residual activity [1] of the same compound?
The residual activity was 101%.

And the residual activity (LTK (human))?
The residual activity was 111%.

And the residual activity (CLK2 (human))?
The residual activity was 93.1%.

And the residual activity (OXSR1 (human))?
Its residual activity is 97.9%.

What about the residual activity (PAK3 (human)) of the same compound?
The residual activity was 100%.

What about the residual activity (DYRK3 (human)) of the same compound?
Its residual activity is 99.9%.

What about the residual activity (MAP2K2 (human)) of the same compound?
The residual activity was 92.5%.

And the residual activity (AKT3 (human))?
Its residual activity is 93.5%.

What about the residual activity (MUSK (human)) of the same compound?
Its residual activity is 95.9%.

And the residual activity (MAP2K1 (human))?
Its residual activity is 95.5%.

And the residual activity (CDK4 CCND1 (human))?
Its residual activity is 99.8%.

And the residual activity (PRKD3 (human))?
Its residual activity is 93.2%.

And the residual activity (ADRBK1 (human))?
The residual activity was 96.1%.

And the residual activity (IKBKE (human))?
Its residual activity is 107%.

`O=C1NC(=O)c2c1c1c3ccccc3[nH]c1n1cncc21` was tested. Which residual activity (CAMK1 (human)) did it give?
Its residual activity is 83.3%.

What about the residual activity (EPHB1 (human)) of the same compound?
Its residual activity is 94%.

What about the residual activity (CHEK1 (human)) of the same compound?
The residual activity was 24.6%.

What about the residual activity (STK4 (human)) of the same compound?
Its residual activity is 42.7%.

And the residual activity (RPS6KB1 (human))?
The residual activity was 70.6%.

What about the residual activity (HIPK1 (human)) of the same compound?
The residual activity was 82.6%.

What about the residual activity (SIK2 (human)) of the same compound?
Its residual activity is 91.9%.

What about the residual activity (CSNK1E (human)) of the same compound?
Its residual activity is 18.9%.

And the residual activity (PRKCI (human))?
The residual activity was 82.3%.

And the residual activity (BRSK2 (human))?
The residual activity was 29.7%.

And the residual activity (MAP3K14 (human))?
Its residual activity is 83%.

And the residual activity (DDR2 (human))?
The residual activity was 96.5%.

And the residual activity (ROCK2 (human))?
Its residual activity is 93.2%.

What about the residual activity (BLK (human)) of the same compound?
Its residual activity is 73.9%.

And the residual activity (ROCK1 (human))?
Its residual activity is 95.9%.

What about the residual activity (PLK2 (human)) of the same compound?
The residual activity was 63.8%.

And the residual activity (STK16 (human))?
Its residual activity is 70.9%.

What about the residual activity (CSNK1G1 (human)) of the same compound?
Its residual activity is 68.4%.

What about the residual activity (ALK (human)) of the same compound?
The residual activity was 84.6%.

What about the residual activity (PAK6 (human)) of the same compound?
The residual activity was 85.5%.

And the residual activity (STK17A (human))?
The residual activity was 36.6%.

What about the residual activity (MAP3K8 (human)) of the same compound?
The residual activity was 100%.

And the residual activity (SRC (human))?
Its residual activity is 88.4%.

What about the residual activity (TSSK1B (human)) of the same compound?
The residual activity was 84.4%.

And the residual activity (MAP3K10 (human))?
The residual activity was 82.5%.

And the residual activity (IRAK4 (human))?
The residual activity was 84.8%.

What about the residual activity (PTK2B (human)) of the same compound?
Its residual activity is 70.1%.

And the residual activity (MAPK11 (human))?
Its residual activity is 94.5%.

What about the residual activity [1] of the same compound?
The residual activity was 65.7%.

What about the residual activity (LTK (human)) of the same compound?
The residual activity was 80.8%.

What about the residual activity (CLK2 (human)) of the same compound?
The residual activity was 94.7%.

What about the residual activity (OXSR1 (human)) of the same compound?
Its residual activity is 97.2%.

And the residual activity (PAK3 (human))?
Its residual activity is 100%.

And the residual activity (DYRK3 (human))?
The residual activity was 85.8%.

And the residual activity (MAP2K2 (human))?
Its residual activity is 85.9%.

And the residual activity (AKT3 (human))?
Its residual activity is 94.3%.

And the residual activity (MUSK (human))?
Its residual activity is 54.4%.

And the residual activity (MAP2K1 (human))?
The residual activity was 102%.

What about the residual activity (CDK4 CCND1 (human)) of the same compound?
The residual activity was 86%.

What about the residual activity (PRKD3 (human)) of the same compound?
Its residual activity is 47.7%.

And the residual activity (ADRBK1 (human))?
The residual activity was 107%.

What about the residual activity (IKBKE (human)) of the same compound?
Its residual activity is 103%.
